The text below walks through data of PMC6017976, “Enzyme Kinetics and Molecular Docking Studies on Cytochrome 2B6, 2C19, 2E1, and 3A4 Activities by Sauchinone” (Molecules : A Journal of Synthetic Chemistry and Natural …, 2018).

SMILES strings stand for the structures. “And” between values parts separate entries of the source, which are not always exact repeats. Equal entries are not always repeated. Where two headings read alike, the source gives them in different places. A value given as a limit tells only on which side of the number the result lay.

Data set [1] concerns the target T1, CYP2B6 (Homo sapiens, UniProt P20813).
T1 construct: pooled human liver microsomes from a mixed pool of 50 donors; tissue BD Gentest Co. 452156; host or cells: human liver microsomes, pool of 50 donors
T1 sequence (P20813 1-491): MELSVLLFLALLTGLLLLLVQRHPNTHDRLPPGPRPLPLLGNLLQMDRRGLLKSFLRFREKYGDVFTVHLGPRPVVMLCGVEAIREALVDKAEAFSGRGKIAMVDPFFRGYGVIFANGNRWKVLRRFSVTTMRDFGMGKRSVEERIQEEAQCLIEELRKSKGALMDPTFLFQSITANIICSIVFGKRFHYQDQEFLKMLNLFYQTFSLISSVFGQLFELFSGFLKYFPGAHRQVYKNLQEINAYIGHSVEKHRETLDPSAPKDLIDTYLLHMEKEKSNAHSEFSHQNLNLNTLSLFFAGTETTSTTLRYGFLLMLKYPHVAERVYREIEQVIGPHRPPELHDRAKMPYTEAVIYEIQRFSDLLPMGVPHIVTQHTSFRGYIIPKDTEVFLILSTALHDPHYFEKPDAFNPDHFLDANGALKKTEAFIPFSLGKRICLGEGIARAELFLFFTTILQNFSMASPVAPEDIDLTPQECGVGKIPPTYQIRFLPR
The data set can be described thus: Reversible inhibition (RI) of CYP2B6 activity in HLMs (cocktail probe assay). Type of data set: in vitro ADME. Conditions: bupropion hydroxylation, 50 μM bupropion, 30 min incubation.

Data set [2] deals with T2, CYP2C19 (Homo sapiens, UniProt P33261).
T2 construct: pooled human liver microsomes from a mixed pool of 50 donors; tissue BD Gentest Co. 452156; host or cells: human liver microsomes, pool of 50 donors
T2 sequence (P33261 whole entry): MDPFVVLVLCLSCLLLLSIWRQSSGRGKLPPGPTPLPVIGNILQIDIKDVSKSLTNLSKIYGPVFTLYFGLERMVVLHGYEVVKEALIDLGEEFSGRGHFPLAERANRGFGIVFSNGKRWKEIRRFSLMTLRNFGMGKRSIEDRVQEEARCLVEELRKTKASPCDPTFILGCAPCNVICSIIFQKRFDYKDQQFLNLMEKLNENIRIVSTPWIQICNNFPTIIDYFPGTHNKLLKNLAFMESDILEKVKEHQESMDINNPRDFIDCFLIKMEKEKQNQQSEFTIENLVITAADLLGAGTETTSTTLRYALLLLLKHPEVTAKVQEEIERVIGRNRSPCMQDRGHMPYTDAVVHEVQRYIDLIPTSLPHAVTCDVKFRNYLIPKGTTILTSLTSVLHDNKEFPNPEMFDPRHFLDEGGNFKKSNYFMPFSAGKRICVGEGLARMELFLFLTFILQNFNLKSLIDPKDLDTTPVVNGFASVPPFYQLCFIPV
The data set can be described thus: Reversible inhibition (RI) of CYP2C19 activity in HLMs (cocktail probe assay). Type of data set: in vitro ADME. To be noted: S-mephenytoin hydroxylation, 100 μM S-mephenytoin, 30 min incubation.

Data set [3] has as its target T3, CYP2E1 (Homo sapiens, UniProt P05181).
T3 construct: pooled human liver microsomes from a mixed pool of 50 donors; tissue BD Gentest Co. 452156; host or cells: human liver microsomes, pool of 50 donors
The data set can be described thus: Reversible inhibition (RI) of CYP2E1 activity in HLMs (cocktail probe assay). Type of data set: in vitro ADME. Conditions: chlorzoxazone hydroxylation, 50 μM chlorzoxazone, 30 min incubation.

For data set [4], the target named is T1, CYP2B6. The data set can be described thus: Enzyme kinetic assay (Dixon plot, Ki) for CYP2B6 in HLMs. The class given is in vitro ADME. As to the method:
(§1) Based on IC50 values, the Kis of sauchinone for CYP2B6, 2C19, 2E1, and 3A4 were determined. Different concentrations (20, 50, and 200 μM) of sauchinone were used. Other procedures were similar to those mentioned above regarding the reversible inhibitory effects of sauchinone. The inhibitory characteristics of sauchinone were initially estimated by nonlinear least squares regression analysis. Its Ki values were determined by Dixon plots.

The target in data set [5] is T2, CYP2C19. The data set can be described thus: Enzyme kinetic assay (Dixon plot, Ki) for CYP2C19 in HLMs. Type of data set: in vitro ADME. As to the method:
as §1

The target in the next data set is T4, CYP2C9 (Homo sapiens, UniProt P11712).
T4 construct: pooled human liver microsomes from a mixed pool of 50 donors; tissue BD Gentest Co. 452156; host or cells: human liver microsomes, pool of 50 donors
T4 sequence (P11712 whole entry): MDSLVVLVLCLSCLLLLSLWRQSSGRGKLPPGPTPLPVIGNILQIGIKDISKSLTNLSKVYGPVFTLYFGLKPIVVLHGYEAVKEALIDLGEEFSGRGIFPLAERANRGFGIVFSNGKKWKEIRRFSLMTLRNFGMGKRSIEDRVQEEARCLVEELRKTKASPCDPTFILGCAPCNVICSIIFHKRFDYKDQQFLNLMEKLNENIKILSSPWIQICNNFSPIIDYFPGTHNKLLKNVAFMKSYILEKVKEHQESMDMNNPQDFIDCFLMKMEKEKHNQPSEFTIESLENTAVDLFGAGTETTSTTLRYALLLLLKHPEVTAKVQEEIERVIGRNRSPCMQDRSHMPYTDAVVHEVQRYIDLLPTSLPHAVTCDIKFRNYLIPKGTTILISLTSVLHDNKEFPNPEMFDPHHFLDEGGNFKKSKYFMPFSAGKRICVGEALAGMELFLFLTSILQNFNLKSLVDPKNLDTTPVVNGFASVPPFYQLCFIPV
Nature of the data set: Time-dependent inhibition (TDI) IC50 shift assay on CYP2C9 in HLMs. Conditions: 10 min incubation. Type of data set: in vitro ADME.

The target of data set [6] is T3, CYP2E1. The data set can be described thus: Time-dependent inhibition (TDI) IC50 shift assay on CYP2E1 in HLMs. The class given is in vitro ADME. Conditions: for IC50: HLMs, 10 min incubation.
The target of data set [7] is T5, CYP1A2 (Homo sapiens, UniProt P05177).
T5 sequence (P05177 1-516): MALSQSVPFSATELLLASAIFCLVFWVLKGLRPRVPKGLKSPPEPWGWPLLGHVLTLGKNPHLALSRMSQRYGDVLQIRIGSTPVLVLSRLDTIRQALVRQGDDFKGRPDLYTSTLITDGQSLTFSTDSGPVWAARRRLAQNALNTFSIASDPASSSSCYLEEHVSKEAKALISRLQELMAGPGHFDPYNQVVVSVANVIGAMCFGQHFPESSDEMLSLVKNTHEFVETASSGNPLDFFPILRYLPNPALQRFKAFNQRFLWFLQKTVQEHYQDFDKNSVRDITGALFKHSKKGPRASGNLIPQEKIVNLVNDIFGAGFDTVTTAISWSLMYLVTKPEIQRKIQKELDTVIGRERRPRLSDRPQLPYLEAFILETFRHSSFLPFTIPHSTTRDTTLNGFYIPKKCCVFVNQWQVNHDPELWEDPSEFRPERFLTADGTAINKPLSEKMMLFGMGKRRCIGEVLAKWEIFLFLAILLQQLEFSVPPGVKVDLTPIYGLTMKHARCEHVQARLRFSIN
The data set can be described thus: Time-dependent inhibition (TDI) IC50 shift assay on CYP1A2 in HLMs. The class given is in vitro ADME. The arrangement: […]; tissue BD Gentest Co. 452156. To be noted: 10 min incubation.

The target in data set [8] is T5, CYP1A2. The data set can be described thus: Reversible inhibition (RI) of CYP1A2 activity in HLMs (cocktail probe assay).
For another data set, the target named is T6, CYP2A6 (Homo sapiens, UniProt P11509).
T6 sequence (P11509 1-494): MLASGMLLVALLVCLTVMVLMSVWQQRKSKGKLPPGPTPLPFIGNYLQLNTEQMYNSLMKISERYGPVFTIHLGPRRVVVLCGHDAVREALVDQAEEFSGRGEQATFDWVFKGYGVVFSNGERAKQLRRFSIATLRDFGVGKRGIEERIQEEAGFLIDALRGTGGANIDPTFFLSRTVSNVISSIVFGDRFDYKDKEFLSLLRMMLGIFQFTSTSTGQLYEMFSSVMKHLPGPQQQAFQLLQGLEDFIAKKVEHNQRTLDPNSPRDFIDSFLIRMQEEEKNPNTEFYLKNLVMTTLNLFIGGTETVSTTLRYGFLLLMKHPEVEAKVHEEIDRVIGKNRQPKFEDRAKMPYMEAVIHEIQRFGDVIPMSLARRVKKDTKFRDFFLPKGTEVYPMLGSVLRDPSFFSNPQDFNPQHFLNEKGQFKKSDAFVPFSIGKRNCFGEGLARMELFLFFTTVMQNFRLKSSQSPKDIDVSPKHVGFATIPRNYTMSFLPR
Nature of the data set: Reversible inhibition (RI) of CYP2A6 activity in HLMs (cocktail probe assay).

T3 sequence (P05181 whole entry): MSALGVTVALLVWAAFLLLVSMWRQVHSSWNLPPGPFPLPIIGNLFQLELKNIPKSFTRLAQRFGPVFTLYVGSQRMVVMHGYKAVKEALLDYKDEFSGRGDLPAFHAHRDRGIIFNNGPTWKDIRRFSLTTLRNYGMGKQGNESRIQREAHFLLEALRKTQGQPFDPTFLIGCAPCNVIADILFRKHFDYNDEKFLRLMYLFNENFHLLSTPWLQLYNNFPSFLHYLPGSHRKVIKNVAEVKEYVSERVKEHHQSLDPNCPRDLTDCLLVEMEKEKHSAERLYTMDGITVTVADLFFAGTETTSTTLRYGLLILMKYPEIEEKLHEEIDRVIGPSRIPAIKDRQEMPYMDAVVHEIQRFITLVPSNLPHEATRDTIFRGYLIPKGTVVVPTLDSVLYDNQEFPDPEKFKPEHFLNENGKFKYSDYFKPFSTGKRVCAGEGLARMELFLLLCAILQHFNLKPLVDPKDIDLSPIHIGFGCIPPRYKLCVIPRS

Usually IC50 stands for the point on the concentration scale where inhibition reaches its midpoint. As to `C[C@@H]1[C@H]2c3cc4c(cc3O[C@@]35OCOC3=CC(=O)[C@H](C[C@H]1C)[C@@H]25)OCO4` [Sauchinone], the IC50 on CYP2B6 [1] is 0.458 ± 0.0932 µM; at CYP2C19 [2], 3.6 ± 2.54 µM; on CYP2E1 [3], 35.4 µM and 35.8 µM; on CYP2C9 (0 min pre-incubation with NADPH, read-out: IC50 on CYP2C9, 0 min inactivation incubation (TDI)) it was > 300 µM; at CYP2C9 (IC50 on CYP2C9, 30 min inactivation incubation (TDI), 30 min pre-incubation with NADPH), > 300 µM; at CYP2E1 [6] (0 min pre-incubation with NADPH, read-out: IC50 on CYP2E1, 0 min inactivation incubation (TDI)), 105 ± 57 µM. The IC50 at CYP2E1 [6] (IC50 on CYP2E1, 30 min inactivation incubation (TDI), 30 min pre-incubation with NADPH) was 5.04 ± 1.91 µM; at CYP1A2 [7] (0 min pre-incubation with NADPH, read-out: IC50 on CYP1A2, 0 min inactivation incubation (TDI)), > 300 µM; on CYP1A2 [7] (IC50 on CYP1A2, 30 min inactivation incubation (TDI), 30 min pre-incubation with NADPH), > 300 µM; against CYP1A2 [8], > 300 µM; against CYP2A6, > 300 µM. In addition, the Ki at CYP2B6 [4] (sauchinone 20, 50, 200 μM, read-out: Apparent inhibition constant (Ki) for CYP2B6) is 14.3 µM; at CYP2C19 [5] (sauchinone 20, 50, 200 μM, read-out: Apparent inhibition constant (Ki) for CYP2C19), 16.8 µM. At CYP2B6 [4] (visual inspection), the “Type of reversible inhibition of CYP2B6 (Dixon plot model)” value is given as “noncompetitive”. In addition, the “Type of reversible inhibition of CYP2C19 (Dixon plot model)” value on CYP2C19 [5] (visual inspection) was “noncompetitive”. The IC50 shift at 10 min at CYP2E1 [6] (human, human liver microsomes, pH 7.4, probe chlorzoxazone (substrate cocktail set)) is 20.9.
